Values of other authors in patent US20050266073A1, “Fast disintegrating granules containing bromhexin/bromhexinhydrochloride, process for their preparation, and their use in veterinary medicine” (Boehringer Ingelheim Vetmedica GmbH, priority 2004, published 2005).

Experiments:
[1] = not given; remark: listed apart in the source

solubility in water | solubility in water (in words) | solubility in ethanol, methanol and methylene chloride (in words) [1] | Compound
1 g/250 ml | soluble with difficulty | – | CN(Cc1cc(Br)cc(Br)c1N)C1CCCCC1 [Bromhexin, N-cyclohexyl-N-methyl-(2-amino-3,5-dibrombenzyl)amine]
– | – | dissolves with difficulty | CN(Cc1cc(Br)cc(Br)c1N)C1CCCCC1.Cl [Bromhexinhydrochloride]
